{
  "source": "patent US4973679A",
  "about": "“Process for oligonucleo tide synthesis using phosphormidite intermediates” (University Patents, Inc., priority 1986, dated 1990)",
  "assay": "Lewis acid (ZnBr2) hydrolysis rates of triarylmethyl groups attached to the 5'-hydroxyl of deoxynucleosides",
  "format": "physicochemical",
  "details": "0.08 M ZnBr2 in nitromethane; tlc, HCl vapors",
  "experimental": "These compounds are listed in Tables IV and V. The 5'-triarylmethyldeoxynucleosides were treated with protic and Lewis acids using carefully controlled conditions. […] The rates are more variable -with protic acids.\nThe Lewis Acid Hydrolysis Rates of Triarylmethyl Groups\n^1 Reaction conditions were 0.08 M ZnBr2 in nitromethane.\nAliquots were removed from the reaction solution, quenched with ammonium\nacetate and analyzed visually after tlc and exposure to HCl vapors. Time",
  "data": [
    {"smiles": "Cc1ccc(C(OC[C@H]2O[C@@H](n3cnc4c(NC(=O)c5ccccc5)ncnc43)C[C@@H]2O)(c2ccccc2)c2ccccc2)cc1", "note": "[R1 = h; R2 = R3 = a; A]", "values": [
      {"measurement": "t1/2 in ZnBr2", "result": 45, "unit": "s"}
    ]},
    {"smiles": "COc1ccc(C(OC[C@H]2O[C@@H](n3cnc4c(=O)[nH]c(NC(=O)C(C)C)nc43)C[C@@H]2O)(c2ccccc2)c2ccc(OC)cc2)cc1", "note": "[R1 = R2 = c; R3 = a; G]", "values": [
      {"measurement": "t1/2 in ZnBr2", "result": 20, "unit": "s"}
    ]},
    {"smiles": "COc1ccc(C(OC[C@H]2O[C@@H](n3ccc(NC(=O)c4ccccc4)nc3=O)C[C@@H]2O)(c2ccccc2)c2ccc(OC)cc2)cc1", "note": "[R1 = R2 = c; R3 = a; C]", "values": [
      {"measurement": "t1/2 in ZnBr2", "result": 45, "unit": "s"}
    ]},
    {"smiles": "COc1ccccc1C(OC[C@H]1O[C@@H](n2cc(C)c(=O)[nH]c2=O)C[C@@H]1O)(c1ccccc1OC)c1cccc2ccccc12", "note": "[R1 = R2 = b; R3 = n; T]", "values": [
      {"measurement": "t1/2 in ZnBr2", "result": 30, "unit": "s"}
    ]},
    {"smiles": "COc1ccc(C(OC[C@H]2O[C@@H](n3cc(C)c(=O)[nH]c3=O)C[C@@H]2O)(c2ccccc2)c2ccc(OC)cc2)cc1", "note": "[R1 = R2 = c; R3 = a; T]", "values": [
      {"measurement": "t1/2 in ZnBr2", "result": 60, "unit": "s"}
    ]},
    {"smiles": "COc1ccc(C(OC[C@H]2O[C@@H](n3cnc4c(NC(=O)c5ccccc5)ncnc43)C[C@@H]2O)(c2ccccc2)c2ccc(OC)cc2)cc1", "note": "[R1 = R2 = c; R3 = a; A]", "values": [
      {"measurement": "t1/2 in ZnBr2", "result": 20, "unit": "s"}
    ]},
    {"smiles": "COc1ccc(C(OC[C@H]2O[C@@H](n3cc(C)c(=O)[nH]c3=O)C[C@@H]2O)(c2ccccc2)c2cccc3ccccc23)cc1", "note": "(stereo partly shown) [R1 = n; R2 = c; R3 = a; T]", "values": [
      {"measurement": "t1/2 in ZnBr2", "result": 60, "unit": "s"}
    ]},
    {"smiles": "COc1ccccc1C(OC[C@H]1O[C@@H](n2cnc3c(=O)[nH]c(NC(=O)C(C)C)nc32)C[C@@H]1O)(c1ccccc1)c1ccccc1OC", "note": "[R1 = R2 = b; R3 = a; G]", "values": [
      {"measurement": "t1/2 in ZnBr2", "result": 20, "unit": "s"}
    ]},
    {"smiles": "COc1ccccc1C(OC[C@H]1O[C@@H](n2ccc(NC(=O)c3ccccc3)nc2=O)C[C@@H]1O)(c1ccccc1OC)c1cccc2ccccc12", "note": "[R1 = R2 = b; R3 = n; C]", "values": [
      {"measurement": "t1/2 in ZnBr2", "result": 30, "unit": "s"}
    ]},
    {"smiles": "Cc1cn([C@H]2C[C@H](O)[C@@H](COC(c3ccccc3)(c3ccc(F)cc3)c3cccc4ccccc34)O2)c(=O)[nH]c1=O", "note": "(stereo partly shown) [R1 = n; R2 = e; R3 = a; T]", "values": [
      {"measurement": "t1/2 in ZnBr2", "result": 60, "unit": "s"}
    ]}
  ]
}
